Target: T1, recombinant human Cathepsin K (Homo sapiens, UniProt P43235)
T1 sequence (P43235 115-329): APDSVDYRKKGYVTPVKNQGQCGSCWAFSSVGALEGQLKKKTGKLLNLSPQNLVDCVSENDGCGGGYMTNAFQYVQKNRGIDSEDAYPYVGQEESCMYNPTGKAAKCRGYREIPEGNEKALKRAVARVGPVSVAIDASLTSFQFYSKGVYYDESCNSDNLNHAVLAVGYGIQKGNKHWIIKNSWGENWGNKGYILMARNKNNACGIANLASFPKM
Assay: Cathepsin K activity: inhibition of recombinant human Cathepsin K, fluorogenic substrate Z-Phe-Arg-AMC
Format: biochemical
Settings: pH5.5, fluorescence at 10 minutes, read-out: pIC50 (negative logarithm of the IC50 concentration) for inhibition of human cathepsin K (converted)
Description: To a 384 well microtitre plate is added 5 μl of a 100 μM solution of test compound in assay buffer (100 mM sodium acetate pH5.5, 5 mM EDTA, 5 mM dithiothreitol) with 10% dimethylsulfoxide (DMSO), plus 10 μl of 100 μM solution of the substrate Z-Phe-Arg-AMC (Bachem; 7-amido-coumarine derivative of the dipeptide N-benzyloxycarbonyl-Phe-Arg-OH) in assay buffer and 25 μl of assay buffer. 10 μl of a 1 mg/l solution of activated recombinant human cathepsin K, in assay buffer, is then added to the well, yielding a final inhibitor concentration of 10 μM.
Enzyme activity is determined by measuring the fluorescence of the liberated aminomethylcoumarin at […] using […] excitation, at 10 minutes. Percentage enzyme activity is calculated by comparison of this activity to that of a solution containing no inhibitor.

For CN1CCCN(CCCc2cc(-c3cccc(C(F)(F)F)c3)nc(C#N)n2)CC1 [Example 4u, 4-[3-(4-Methyl-[1,4]diazepan-1-yl)-propyl]-6-(3-trifluoromethylphenyl)-pyrimidine-2-carbonitrile], which IC50 is on record?
Its IC50 is < 10 nM.

With CN1CCC(N(C)CCCc2cc(-c3cccc(C(F)(F)F)c3)nc(C#N)n2)CC1 [Example 4s, 4-{3-[Methyl-(1-methyl-piperidin-4-yl)-amino]-propyl}-6-(3-trifluoromethylphenyl)-pyrimidine-2-carbonitrile] as the compound, how does the IC50 read?
The IC50 was < 10 nM.

With CC(=O)NCCNCCCc1cc(-c2ccc(C)c(C)c2)nc(C#N)n1 [Example 14j, 4-[3-(2-Acetylamino-ethylamino)-propyl]-6-(3,4-dimethyl-phenyl)-pyrimidine-2-carbonitrile] as the compound, how does the IC50 read?
Its IC50 is < 10 nM.

Which IC50 does the source give for N#Cc1nc(CCCN2CCCCC2)cc(-c2cccc(C(F)(F)F)c2)n1 [Example 4a, 4-(3-Piperidin-1-yl-propyl)-6-(3-trifluoromethylphenyl)-pyrimidine-2-carbonitrile] here?
The IC50 was < 10 nM.

With Cc1ccc(-c2cc(CCCNCCN3CCNC3=O)nc(C#N)n2)cc1C [Example 14n, 4-(3,4-Dimethyl-phenyl)-6-{3-[2-(2-oxo-imidazolidin-1-yl)-ethylamino]-propyl}-pyrimidine-2-carbonitrile] as the compound, how does the IC50 read?
Its IC50 is < 10 nM.

For N#Cc1nc(CCCNCc2ccncc2)cc(-c2cccc(C(F)(F)F)c2)n1 [Example 4i, 4-{3-[(Pyridin-4-ylmethyl)-amino]-propyl}-6-(3-trifluoromethylphenyl)-pyrimidine-2-carbonitrile], which IC50 is on record?
The IC50 was < 10 nM.

For N#Cc1nc(CCCNC2CCCCC2)cc(-c2cccc(C(F)(F)F)c2)n1 [Example 4e, 4-(3-Cyclohexylamino-propyl)-6-(3-trifluoromethylphenyl)-pyrimidine-2-carbonitrile], which IC50 is on record?
Its IC50 is < 10 nM.

With CCC(CC)NCCCc1cc(-c2cccc(C(F)(F)F)c2)nc(C#N)n1 [Example 4r, 4-[3-(1-Ethyl-propylamino)-propyl]-6-(3-trifluoromethylphenyl)-pyrimidine-2-carbonitrile] as the compound, how does the IC50 read?
Its IC50 is < 10 nM.

With CCCc1nc(C#N)nc(-c2cccc(C(F)(F)F)c2)c1C [Example 2, 5-Methyl-4-propyl-6-(3-trifluoromethylphenyl)-pyrimidine-2-carbonitrile] as the compound, how does the IC50 read?
Its IC50 is < 100 nM.

For CN1CCN(CCCc2cc(-c3cccc(C(F)(F)F)c3)nc(C#N)n2)CC1 [Example 4d, 4-[3-(4-Methyl-piperazin-1-yl)-propyl]-6-(3-trifluoromethylphenyl)-pyrimidine-2-carbonitrile], which IC50 is on record?
The IC50 was < 10 nM.

For CC(C)NCCCc1cc(-c2cccc(C(F)(F)F)c2)nc(C#N)n1 [Example 4f, 4-(3-isopropylamino-propyl)-6-(3-trifluoromethylphenyl)-pyrimidine-2-carbonitrile], which IC50 is on record?
Its IC50 is < 10 nM.

With CNC(=O)CNCCCc1cc(-c2cccc(C(F)(F)F)c2)nc(C#N)n1 [Example 8a, 4-[3-(Methylcarbamoylmethyl-amino)-propyl]-6-(3-trifluoromethylphenyl)-pyrimidine-2-carbonitrile] as the compound, how does the IC50 read?
The IC50 was < 10 nM.

With CC(C)CNCCCc1cc(-c2cccc(C(F)(F)F)c2)nc(C#N)n1 [Example 4h, 4-(3-Isobutylamino-propyl)-6-(3-trifluoromethylphenyl)-pyrimidine-2-carbonitrile] as the compound, how does the IC50 read?
Its IC50 is < 100 nM.

For CN(CCCc1cc(-c2cccc(C(F)(F)F)c2)nc(C#N)n1)Cc1ccccc1 [Example 4g, 4-[3-(Benzyl-methyl-amino)-propyl]-6-(3-trifluoromethylphenyl)-pyrimidine-2-carbonitrile], which IC50 is on record?
The IC50 was < 10 nM.

With N#Cc1nc(CCCN2CCN(c3ccccn3)CC2)cc(-c2cccc(C(F)(F)F)c2)n1 [4a′, 4-[3-(4-Pyridin-2-yl-piperazin-1-yl)-propyl]-6-(3-trifluoromethylphenyl)-pyrimidine-2-carbonitrile] as the compound, how does the IC50 read?
Its IC50 is < 10 nM.

Test system: not given
Assay: not given
Settings: not given

For CCCc1cc(-c2cc(C(F)(F)F)cc(C(F)(F)F)c2)nc(C#N)n1 [Example 6a, 4-(3,5-Bis-trifluoromethyl-phenyl)-6-propyl-pyrimidine-2-carbonitrile], which melting point is on record?
Its melting point is 112 °C.

For CCCc1cc(-c2cccc(C(C)C)c2)nc(C#N)n1 [Example 5a, 4-(3-Isopropyl-phenyl)-6-propyl-pyrimidine-2-carbonitrile], which melting point is on record?
The melting point was 64 °C.

— patent publication US7589095B2, “4-phenyl-pyrimidine-2-carbonitrile derivatives” (N.V. Organon, priority 2004, dated 2009)
